Measurements from paper PMC8658998, “Identification of Novel Antistaphylococcal Hit Compounds Targeting Sortase A” (Molecules, 2021).
Read-outs that look alike come from different tables or passages of the source.

Molecular target: T1, sortase A (Staphylococcus aureus, UniProt Q2FV99)
T1 construct: gene srtA
Experiment: SensoLyte […] Sortase A FRET substrate cleavage assay (5-FAM/QXL)
Assay type: biochemical

T1 sequence (Q2FV99 whole entry): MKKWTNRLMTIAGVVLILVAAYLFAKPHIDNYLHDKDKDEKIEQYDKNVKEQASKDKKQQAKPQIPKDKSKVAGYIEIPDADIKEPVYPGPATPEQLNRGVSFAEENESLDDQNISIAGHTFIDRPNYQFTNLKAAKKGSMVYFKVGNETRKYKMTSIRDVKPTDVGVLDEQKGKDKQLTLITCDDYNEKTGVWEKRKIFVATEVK

Compound | IC50 | IC50 (read-out: IC50)
c1ccc2c(Nc3ccc4[nH]cnc4c3)c3ccccc3nc2c1 [compound 2, acridin-9-yl-(1H-benzoimidazol-5-yl)-amine] | 207 µM | –
CCN(CC)CCCNc1cc([N+](=O)[O-])ccc1-c1ncc2ccccc2n1 [compound 1, N,N-diethyl-N′-(5-nitro-2-(quinazolin-2-yl)phenyl)propane-1,3-diamine] | – | 160 µM
